Values after ≈ are worked out from the molar mass of the structure shown. Read-outs that look alike come from different tables or passages of the source. Residues, ends and D or L forms follow the SMILES beside them.
How the values were obtained:
Assay in all cases: microbe, parasite or virus in culture
S. enterica Typhi = settings: Typhi
Summary of the method: (§1)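 MICs were scored by eye after 18-20 h static incubation at 37 °C, with bacteria at 5 × 10^5 CFU mL^−1 in MHB. Peptides were serially diluted 2-fold over 12 points, top 128 or 64 μg mL^−1. CAMHB (CLSI) and 1% agarose-MHB variants were also run, at least six replicates.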

S. aureus = settings: BMD; range over strains and media
Summary of the method: as §1

A. baumannii = A. baumannii Greece CI, XDR; PmxR; MHB; mode of 6 replicates
Summary of the method: as §1

K. pneumoniae = settings: for MIC, broth microdilution: plate 1, colony 1; for MIC K. pneumoniae ATCC BAA-2146: NDM-1 strain, NBS Corning 3641 plate
Summary of the method: as §1

E. coli = test system: E. coli
Summary of the method: as §1

P. aeruginosa = test system: P. aeruginosa
Summary of the method: as §1

In the case of `CC(C)[C@@H]1NC(=O)[C@H](Cc2ccc(O)cc2)NC(=O)[C@H](Cc2c[nH]c3ccccc23)NC(=O)[C@@H](NC(=O)[C@H](Cc2ccccc2)NC(=O)CN)CSSC[C@@H](C(=O)N[C@@H](CC(N)=O)C(=O)O)NC(=O)[C@H](CCCNC(=N)N)NC(=O)[C@H](CCCNC(=N)N)NC(=O)[C@H](Cc2ccc(O)cc2)NC(=O)[C@@H]2CSSC[C@H](NC1=O)C(=O)N[C@@H](C)C(=O)N[C@@H](CCCNC(=N)N)C(=O)N[C@@H](CCCNC(=N)N)C(=O)N[C@@H](CC(N)=O)C(=O)NCC(=O)N[C@@H](C)C(=O)N[C@@H](CCCNC(=N)N)C(=O)N[C@@H](C(C)C)C(=O)N2` [AA139] (HELM PEPTIDE1{G.F.C.W.Y.V.C.A.R.R.N.G.A.R.V.C.Y.R.R.C.N}$PEPTIDE1,PEPTIDE1,3:R3-20:R3|PEPTIDE1,PEPTIDE1,7:R3-16:R3$$$V2.0), the “BMD MIC” value (S. enterica Typhi) is reported as 0.5 µg/mL, the “MIC against Staphylococcus aureus” value (S. aureus) is reported as 32 to 64 µg/mL and the “BMD MIC” value (A. baumannii) is reported as 0.5 µg/mL. The “BMD MIC” value (K. pneumoniae) was 0.5 µg/mL, the “MIC K. pneumoniae BAA-2146 (NDM-1)” value (K. pneumoniae; BMD, MHB, 18-20 h 37 °C, mode of ≥6 independent biological replicates) was 1 µg/mL (≈ 0.392 µM) and the “MIC, broth microdilution” value (K. pneumoniae; K. pneumoniae 3010 spontaneous mutant, AA139 selection 4X, drug-free passage 1) was 2, 2 µg/mL. The “MIC, broth microdilution” value (K. pneumoniae; K. pneumoniae 3010 spontaneous mutant, AA139 selection 4X, drug-free passage 5) was 2, 2 µg/mL, the “MIC, broth microdilution” value (K. pneumoniae; K. pneumoniae 3010 spontaneous mutant, AA139 selection 8X, drug-free passage 1) was 2, 2 µg/mL and the “MIC, broth microdilution” value (K. pneumoniae; K. pneumoniae 3010 spontaneous mutant, AA139 selection 8X, drug-free passage 5) was 2, 2 µg/mL. The “BMD MIC” value (K. pneumoniae; K. pneumoniae ATCC 700603 (K6), MDR, OXA-2/SHV-18, CAMHB, mode of 6 replicates) was 2 µg/mL, the “BMD MIC” value (K. pneumoniae; K. pneumoniae ATCC 700603 (K6), MDR, OXA-2/SHV-18, MHB, mode of 6 replicates) was 0.5 µg/mL and the “BMD MIC” value (K. pneumoniae; K. pneumoniae BAA-2146, MDR, ESBL, NDM-1 pos, MHB, mode of 6 replicates) was 1 µg/mL. For the same compound, the “BMD MIC” value (K. pneumoniae; K. pneumoniae Greece CI 8_GR_13, XDR, KPC-2, PmxR, MHB, mode of 6 replicates) was 16 µg/mL, the “MIC, broth microdilution” value (K. pneumoniae; K. pneumoniae ST258 spontaneous mutant, AA139 selection 4X, drug-free passage 1) was 2, 2 µg/mL and the “MIC, broth microdilution” value (K. pneumoniae; K. pneumoniae ST258 spontaneous mutant, AA139 selection 4X, drug-free passage 5) was 2, 2 µg/mL. For the same compound, the “MIC K. pneumoniae ATCC BAA-2146” value (K. pneumoniae; CAMHB, replicate 1) was 1 µg/mL (≈ 0.392 µM), the “MIC K. pneumoniae ATCC BAA-2146” value (K. pneumoniae; CAMHB, replicate 2) was 1 µg/mL (≈ 0.392 µM) and the “MIC K. pneumoniae ATCC BAA-2146” value (K. pneumoniae; CAMHB, replicate 3) was 1 µg/mL (≈ 0.392 µM). For the same compound, the “MIC K. pneumoniae ATCC BAA-2146” value (K. pneumoniae; CAMHB, replicate 4) was 2 µg/mL (≈ 0.784 µM), the “MIC K. pneumoniae ATCC BAA-2146” value (K. pneumoniae; CAMHB, replicate 5) was 1 µg/mL (≈ 0.392 µM) and the “MIC K. pneumoniae ATCC BAA-2146” value (K. pneumoniae; CAMHB, replicate 6) was 1 µg/mL (≈ 0.392 µM). The “MIC K. pneumoniae ATCC BAA-2146” value (K. pneumoniae; CAMHB, replicate 7) was 0.5 µg/mL (≈ 0.196 µM), the “MIC K. pneumoniae ATCC BAA-2146” value (K. pneumoniae; CAMHB, replicate 8) was 0.5 µg/mL (≈ 0.196 µM) and the “MIC K. pneumoniae ATCC BAA-2146” value (K. pneumoniae; CAMHB, replicate 9) was 0.5 µg/mL (≈ 0.196 µM). The “MIC K. pneumoniae ATCC BAA-2146” value (K. pneumoniae; CAMHB, replicate 10) was 0.25 µg/mL (≈ 0.098 µM), the “MIC K. pneumoniae ATCC BAA-2146” value (K. pneumoniae; CAMHB, replicate 11) was 0.5 µg/mL (≈ 0.196 µM) and the “MIC K. pneumoniae ATCC BAA-2146” value (K. pneumoniae; CAMHB, replicate 12) was 0.5 µg/mL (≈ 0.196 µM). The “MIC K. pneumoniae ATCC BAA-2146” value (K. pneumoniae; CAMHB, replicate 13) was 1 µg/mL (≈ 0.392 µM), the “MIC K. pneumoniae ATCC BAA-2146” value (K. pneumoniae; CAMHB, replicate 14) was 1 µg/mL (≈ 0.392 µM) and the “MIC against ESBL producing E. coli DSA 443” value (E. coli) was 0.5 µg/mL (≈ 0.196 µM). The “MIC, broth microdilution” value (E. coli) was 0.06 µg/mL (≈ 0.0235 µM), the “MIC, broth microdilution” value (E. coli; E. coli AUD172 spontaneous mutant, AA139 selection 4X, plate 2, colony 2, drug-free passage 1) was 0.12 µg/mL (≈ 0.0471 µM) and the “MIC, broth microdilution” value (E. coli; E. coli AUD172 spontaneous mutant, AA139 selection 4X, plate 2, colony 2, drug-free passage 5) was 0.25 µg/mL (≈ 0.098 µM). For the same compound, the “BMD MIC” value (E. coli; E. coli ESBL20150072, mcr-1 pos, ESBL, CAMHB, AA139) was 0.5 µg/mL, the “MIC against P. aeruginosa (ATCC 27853)” value (P. aeruginosa) was 1.0 µg/mL (≈ 0.392 µM) and the “MIC, broth microdilution” value (P. aeruginosa) was 1 µg/mL (≈ 0.392 µM). For the same compound, the “MIC, broth microdilution” value (P. aeruginosa; P. aeruginosa ATCC 27853 spontaneous mutant, AA139 selection 4X, plate 1, colony 1, drug-free passage 1) was 1, 1 µg/mL, the “MIC, broth microdilution” value (P. aeruginosa; P. aeruginosa ATCC 27853 spontaneous mutant, AA139 selection 4X, plate 1, colony 1, drug-free passage 5) was 1, 1 µg/mL and the “MIC, broth microdilution” value (P. aeruginosa; P. aeruginosa ATCC 27853 spontaneous mutant, AA139 selection 4X, plate 1, colony 2, drug-free passage 1) was 1, 1 µg/mL. For the same compound, the “MIC, broth microdilution” value (P. aeruginosa; P. aeruginosa ATCC 27853 spontaneous mutant, AA139 selection 4X, plate 1, colony 2, drug-free passage 5) was 1, 1 µg/mL, the “MIC, broth microdilution” value (P. aeruginosa; P. aeruginosa ATCC 27853 spontaneous mutant, AA139 selection 4X, plate 1, colony 3, drug-free passage 1) was 1, 1 µg/mL and the “MIC, broth microdilution” value (P. aeruginosa; P. aeruginosa ATCC 27853 spontaneous mutant, AA139 selection 4X, plate 1, colony 3, drug-free passage 5) was 1, 1 µg/mL. For the same compound, the “MIC, broth microdilution” value (P. aeruginosa; P. aeruginosa ATCC 27853 spontaneous mutant, AA139 selection 4X, plate 1, colony 4, drug-free passage 1) was 2 µg/mL (≈ 0.784 µM), the “MIC, broth microdilution” value (P. aeruginosa; P. aeruginosa ATCC 27853 spontaneous mutant, AA139 selection 4X, plate 1, colony 4, drug-free passage 5) was 1 µg/mL (≈ 0.392 µM) and the “MIC, broth microdilution” value (P. aeruginosa; P. aeruginosa ATCC 27853 spontaneous mutant, AA139 selection 4X, plate 1, colony 5, drug-free passage 1) was 2, 2 µg/mL. The “MIC, broth microdilution” value (P. aeruginosa; P. aeruginosa ATCC 27853 spontaneous mutant, AA139 selection 4X, plate 1, colony 5, drug-free passage 5) was 2, 2 µg/mL, the “MIC, broth microdilution” value (P. aeruginosa; P. aeruginosa ATCC 27853 spontaneous mutant, AA139 selection 4X, plate 1, colony 6, drug-free passage 1) was 1, 1 µg/mL and the “MIC, broth microdilution” value (P. aeruginosa; P. aeruginosa ATCC 27853 spontaneous mutant, AA139 selection 4X, plate 1, colony 6, drug-free passage 5) was 1, 1 µg/mL. The “MIC, broth microdilution” value (P. aeruginosa; P. aeruginosa ATCC 27853 spontaneous mutant, AA139 selection 4X, plate 2, colony 1, drug-free passage 1) was 1, 1 µg/mL, the “MIC, broth microdilution” value (P. aeruginosa; P. aeruginosa ATCC 27853 spontaneous mutant, AA139 selection 4X, plate 2, colony 1, drug-free passage 5) was 1, 1 µg/mL and the “MIC, broth microdilution” value (P. aeruginosa; P. aeruginosa ATCC 27853 spontaneous mutant, AA139 selection 4X, plate 2, colony 2, drug-free passage 1) was 1, 1 µg/mL. The “MIC, broth microdilution” value (P. aeruginosa; P. aeruginosa ATCC 27853 spontaneous mutant, AA139 selection 4X, plate 2, colony 2, drug-free passage 5) was 1, 1 µg/mL, the “MIC, broth microdilution” value (P. aeruginosa; P. aeruginosa ATCC 27853 spontaneous mutant, AA139 selection 4X, plate 2, colony 3, drug-free passage 1) was 1 µg/mL (≈ 0.392 µM) and the “MIC, broth microdilution” value (P. aeruginosa; P. aeruginosa ATCC 27853 spontaneous mutant, AA139 selection 4X, plate 2, colony 3, drug-free passage 5) was 0.5 µg/mL (≈ 0.196 µM).

— PMC7311426, “An amphipathic peptide with antibiotic activity against multidrug-resistant Gram-negative bacteria” (Nature Communications, 2020)
